Laboratory results as given in patent publication US5466675A, “Immunological activity of rhamnolipids” (priority 1992, dated 1995).

Experiments:
[1] = tested on: sheep red blood cell (SRBC) hemagglutination; assay: immunostimulation (humoral): sheep red blood cell (SRBC) hemagglutination; format: in vivo, mouse (ICR, female)
Description: Groups of 6 mice were sensitized by the IV injection of 0.2 ml of a 2% SRBC suspension. On the 9th day following sensitization, blood samples were withdrawn from the orbital sinus and equal parts of complement inactivated serum from the group of 6 mice were pooled to yield a single 0.25 ml sample. Serial 2-fold dilutions were then carried out 10 times in the presence of added complement. […] Serum titers of less than 16 or greater than 128 are considered significant and indicate possible immunosuppressant and immunostimulant activity, respectively.
For immunostimulant activity, test substance or vehicle was administered i.p. to groups of mice for 3 consecutive days, and sensitized to SRBCs 2 hours after the third (last) injection. For immunosuppressant activity, test substance or vehicle was administered i.p. to groups of mice for 3 consecutive days beginning 2 hours after sensitization to SRBCs.

[2] = tested on: citrate bovine blood; assay: hemolytic activity; format: cell-based
Description: Hemolytic activity of rhamnolipid (II) could be seen after sedimentation of erythrocytes, when hemoglobin colored the solution. If there was no hemolytic activity, erythrocytes would have precipitated without coloring the solution. For test purposes 1 ml of citrate bovine blood was added to 49 ml of isotonic solution.
Series of test samples were prepared in concentrations ranging from 1.0 mg/ml to 0.01 mg/ml. 1 ml of diluted citric bovine blood was added to 1 ml of diluted test sample. The test tube was gently mixed and left for 0.25 h, 1 h and 24 h, respectively. The lowest dose of rhamnolipid II that caused hemolysis in 15 min. was 0.35 mg/ml; in 1 h was 0.25 mg/ml and in 24 h was 0.125 mg/ml.

[3] = tested on: elastase; assay: enzyme inhibition, elastase; format: biochemical
Description: (§1) Rhamnolipid (II) was tested in vitro against a wide array of enzymes.
(§2) All enzyme assays were done spectrophotometrically by computer linked automatic microplate reader (Labsystem Multiskan) and Diode Array spectrophotometer (Perkin Elmer).

[4] = tested on: blood count in mouse; settings: in vivo
Text: Activity of Di-rhamnolipid on Blood Count in Mouse
Blood count after application of di-rhamnolipid

[5] = tested on: Lichen ruber planus; settings: 1% rhamnolipid ointment; Belgium patent No. 1,005,704; cited from earlier work
[6] = tested on: oxazolone-induced delayed type hypersensitivity; assay: immunostimulation (cellular): oxazolone-induced delayed type hypersensitivity; format: in vivo, mouse; settings: for Swelling (R -L) / ear thickness, Left Ear (No Oxa.) / ear thickness, Right Ear (24 hrs Oxa.): X ± SEM
Description: The test substance was administered i.p to groups of 5 mice, 1 hour before application (sensitization) of oxazolone (0.1 ml of 5% solution) to the pre-shaven abdominal surface. Seven days later, 25 μl of a 2% solution of oxazolone was applied (challenge) to the right ear, with vehicle being applied to the left ear. After 24 hours, each mouse was sacrificed and ear thickness measured with a Dyer Model micrometer gauge. Greater than 30 percent enhancement is considered immunostimulant activity.

[7] = tested on: carboxypeptidase A; assay: enzyme inhibition, carboxypeptidase A; format: biochemical
Description: as §1
(§3) The following enzymes were inhibited at the various rhamnolipid concentrations indicated:
as §2

[8] = tested on: Candida albicans; assay: immunomodulation: infection with Candida albicans; format: in vivo, mouse (ICR, female); settings: for Survivor No.: n = 10
Description: The test compound or vehicle was administered i.p. to groups of 10 mice 1 hour before IV, challenge with suspension of C. albicans sufficient to result in 90 to 100% mortality within 10 days in the vehicle treated control group. A greater than 30 percent survival for any treated group is considered very significant, and possibly a result of immunomodulation, while an increase of 20% is considered a moderate immunomodulation activity.

[9] = tested on: Psoriasis; settings: 1% rhamnolipid ointment; Belgium patent No. 1,005,704; cited from earlier work
[10] = tested on: B-cells isolated from mouse spleen; assay: B-lymphocyte proliferation + LPS; format: cell-based
Description: Procedure: B-cells were isolated from mouse spleen using convnetional procedures, and suspended in DMEM. 10^6 cells/ml were incubated overnight at 37° C. in the presence of 10 ug/ml lipopolysaccharide (LPS) to assess stimulation (positive score, related to 1 ng/ml rat interleukin-5) or suppression (negative score, related to control) of cell proliferation. The test substance was evaluated under these conditions at 10, 1, 0.1, and 0.01 uM. After overnight incubation, 2 uCi [^3 H] thymidine was added to each well. Cells were harvested after an additional 48 hour incubation, and thymidine incorporation assessed by liquid scintillation counting.

[11] = tested on: alpha-amylase; assay: enzyme inhibition, alpha-amylase; format: biochemical
Description: as §1, §3, §2

[12] = tested on: vesicular stomatitis virus; format: cell-based; settings: concentrations ≤100 ug/ml

CCCCCCCC(CC(=O)O)OC(=O)CC(CCCCCCC)O[C@@H]1O[C@@H](C)[C@H](O)[C@@H](O)[C@H]1O[C@@H]1O[C@@H](C)[C@H](O)[C@@H](O)[C@H]1O (stereo partly drawn) [Rhamnolipid (II), (alpha-L-rhamnopyranosyl-(1,2)alpha-L-rhamnopyranosyl)-3-hydroxydecanoyl-3-hydroxydecanoic acid]
SERUM TITER (Reciprocal Serum Dilution) ([1]; IP 0.1 × 3 mg/kg): 64
SERUM TITER (Reciprocal Serum Dilution) ([1]; IP 1 × 3 mg/kg): 64
SERUM TITER (Reciprocal Serum Dilution) ([1]; IP 10 × 3 mg/kg): 128
SERUM TITER (Reciprocal Serum Dilution) ([1]; IP 100 × 3 mg/kg): 8
died on Day 3 ([1]; IP 100 × 3 mg/kg): 1/6
lowest dose that caused hemolysis ([2]; 15 min): 0.35 mg/mL
lowest dose that caused hemolysis ([2]; 1 h): 0.25 mg/mL
lowest dose that caused hemolysis ([2]; 24 h): 0.125 mg/mL
amount that led to hemolytic activity ([2]; diluted in 2 ml isotonic solution of diluted citric bovine blood, lower did not): 0.25 mg
effect on enzyme [3]: no effect
Lymphocyts [4]: 53.40 +/- 11.14
lymphocytes [4]: 56.50 +/- 12.02
nRBC [4]: 0
change in lymphocytes ([4]; iv, 7.5 mg/kg): decreased
change in neutrophils ([4]; iv, 7.5 mg/kg): significantly increased
activity in treatment of Lichen rubber planus [5]: strong activity
Swelling Inc. % ([6]; IP 0.1 × 5 mg/kg): -11%
Swelling (R -L) ([6]; IP 0.1 × 5 mg/kg): 15.4 +/- 1.7 × 0.01 mm
ear thickness, Left Ear (No Oxa.) ([6]; IP 0.1 × 5 mg/kg): 19.4 +/- 1.1 × 0.01 mm
ear thickness, Right Ear (24 hrs Oxa.) ([6]; IP 0.1 × 5 mg/kg): 34.8 +/- 1.8 × 0.01 mm
Swelling Inc. % ([6]; IP 1 × 5 mg/kg): 9%
Swelling (R -L) ([6]; IP 1 × 5 mg/kg): 19.0 +/- 2.2 × 0.01 mm
ear thickness, Left Ear (No Oxa.) ([6]; IP 1 × 5 mg/kg): 20.6 +/- 0.9 × 0.01 mm
ear thickness, Right Ear (24 hrs Oxa.) ([6]; IP 1 × 5 mg/kg): 39.6 +/- 2.2 × 0.01 mm
Swelling Inc. % ([6]; IP 10 × 5 mg/kg): 14%
Swelling (R -L) ([6]; IP 10 × 5 mg/kg): 19.8 +/- 1.9 × 0.01 mm
ear thickness, Left Ear (No Oxa.) ([6]; IP 10 × 5 mg/kg): 20.2 +/- 0.4 × 0.01 mm
ear thickness, Right Ear (24 hrs Oxa.) ([6]; IP 10 × 5 mg/kg): 40.0 +/- 1.6 × 0.01 mm
Swelling Inc. % ([6]; IP 100 × 5 mg/kg): -37%
died on Day 2 ([6]; IP 100 × 5 mg/kg): 1/5
Swelling (R -L) ([6]; IP 100 × 5 mg/kg): 11.0 +/- 1.1 × 0.01 mm
ear thickness, Left Ear (No Oxa.) ([6]; IP 100 × 5 mg/kg): 21.3 +/- 1.0 × 0.01 mm
ear thickness, Right Ear (24 hrs Oxa.) ([6]; IP 100 × 5 mg/kg): 32.3 +/- 2.0 × 0.01 mm
concentration at which the enzyme was inhibited [7]: 1 mg/mL
immunomodulation activity ([8]; 10 mg/kg and 1 mg/kg): moderate activity
Death, days post-inoculum 0-1 ([8]; IP 0.1 × 3 mg/kg): 3 #/10 Mice
Death, days post-inoculum 2-3 ([8]; IP 0.1 × 3 mg/kg): 4 #/10 Mice
Death, days post-inoculum 4-6 ([8]; IP 0.1 × 3 mg/kg): 1 #/10 Mice
Death, days post-inoculum 7-9 ([8]; IP 0.1 × 3 mg/kg): 0 #/10 Mice
Response Inc. % ([8]; IP 0.1 × 3 mg/kg): 0%
Survivor No. ([8]; IP 0.1 × 3 mg/kg): 2
Death, days post-inoculum 0-1 ([8]; IP 1 × 3 mg/kg): 2 #/10 Mice
Death, days post-inoculum 2-3 ([8]; IP 1 × 3 mg/kg): 3 #/10 Mice
Death, days post-inoculum 4-6 ([8]; IP 1 × 3 mg/kg): 1 #/10 Mice
Death, days post-inoculum 7-9 ([8]; IP 1 × 3 mg/kg): 0 #/10 Mice
Response Inc. % ([8]; IP 1 × 3 mg/kg): 20%
Survivor No. ([8]; IP 1 × 3 mg/kg): 4
Death, days post-inoculum 0-1 ([8]; IP 10 × 3 mg/kg): 0 #/10 Mice
Death, days post-inoculum 2-3 ([8]; IP 10 × 3 mg/kg): 5 #/10 Mice
Death, days post-inoculum 4-6 ([8]; IP 10 × 3 mg/kg): 1 #/10 Mice
Death, days post-inoculum 7-9 ([8]; IP 10 × 3 mg/kg): 0 #/10 Mice
Response Inc. % ([8]; IP 10 × 3 mg/kg): 20%
Survivor No. ([8]; IP 10 × 3 mg/kg): 4
Death, days post-inoculum 0-1 ([8]; IP 100 × 3 mg/kg): 6 #/10 Mice
Death, days post-inoculum 2-3 ([8]; IP 100 × 3 mg/kg): 4 #/10 Mice
Death, days post-inoculum 4-6 ([8]; IP 100 × 3 mg/kg): 0 #/10 Mice
Death, days post-inoculum 7-9 ([8]; IP 100 × 3 mg/kg): 0 #/10 Mice
Response Inc. % ([8]; IP 100 × 3 mg/kg): 0%
Survivor No. ([8]; IP 100 × 3 mg/kg): 0
in vivo immunomodulation activity ([8]; summary, no dose stated): moderate
activity in treatment of Psoriasis [9]: strong activity
B-cell proliferation ([10]; 10 uM and 1 uM, added lipopolysaccharide): significant suppression
activation at 0.001 µM ([10]; Mus musculus, B-cell, read-out: % Stimulation (+)/Suppression (-)): 13%
activation at 0.01 µM ([10]; Mus musculus, B-cell, 0.01 uM, LPS, 0.5% DMSO, read-out: % Stimulation (+)/Suppression (-)): -15%
activation at 0.1 µM ([10]; Mus musculus, B-cell, 0.1 uM, LPS, 0.5% DMSO, read-out: % Stimulation (+)/Suppression (-)): -9%
activation at 1 µM ([10]; Mus musculus, B-cell, 1 uM, LPS, 0.5% DMSO, read-out: % Stimulation (+)/Suppression (-)): -25%
activation at 10 µM ([10]; Mus musculus, B-cell, 10 uM, LPS, 0.5% DMSO, read-out: % Stimulation (+)/Suppression (-)): -54%
concentration at which the enzyme was inhibited [11]: 1 mg/mL
antiviral activity [12]: no activity
